“And” between values parts separate entries of the source, which are not always exact repeats. Equal values may be shown once. Inconclusive results are not listed.
Tested on: BDF1 mice, colon carcinoma 38 sc, T/C %
Assay: NCI In Vivo Anticancer Drug Screen. Data for tumor model Colon Carcinoma 38 (subcutaneous) in B6D2F1 (BDF1) mice
How it was run: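 Ratio of survival or tumor size, compound-treated animals relative to vehicle controls, in tumor-bearing mice.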

CC(CN1CC(=O)NC(=O)C1)N1CC(=O)NC(=O)C1 (centres undefined)
T/C (endpoint: median tumor weight (est.), dose: 25.0 mg/kg/injection, schedule: Q07DX003 (ip), vehicle: Klucel (hydroxypropylcellulose) (HPC), higher = larger tumour): 84 % of control and 89 % of control | T/C (endpoint: median tumor weight (est.), dose: 50.0 mg/kg/injection, schedule: Q07DX003 (ip), vehicle: Klucel (hydroxypropylcellulose) (HPC), higher = larger tumour): 73 % of control and 85 % of control | T/C (endpoint: median tumor weight (est.), dose: 200.0 mg/kg/injection, schedule: Q07DX003 (ip), vehicle: Klucel (hydroxypropylcellulose) (HPC), higher = larger tumour): 51 % of control and 54 % of control | T/C (endpoint: median tumor weight (est.), dose: 400.0 mg/kg/injection, schedule: Q07DX003 (ip), vehicle: Klucel (hydroxypropylcellulose) (HPC), higher = larger tumour): 9 % of control and 15 % of control

CCCCCCCCCCCC(=O)NC1CC(O[C@H]2C[C@](O)(C(=O)CO)Cc3c(O)c4c(c(O)c32)C(=O)c2c(OC)cccc2C4=O)OC(C)C1O (some centres undefined)
T/C (endpoint: median survival time, dose: 17.0 mg/kg/injection, schedule: Q07DX003 (iv), vehicle: saline, higher = longer survival): 97 % of control | T/C (endpoint: median survival time, dose: 43.0 mg/kg/injection, schedule: Q07DX003 (iv), vehicle: saline, higher = longer survival): 123 % of control | T/C (endpoint: median survival time, dose: 70.0 mg/kg/injection, schedule: Q07DX003 (iv), vehicle: saline, higher = longer survival): 103 % of control | T/C (endpoint: median tumor weight (est.), dose: 28.7 mg/kg/injection, schedule: Q07DX002 (ip), vehicle: distilled water + Tween-80, higher = larger tumour): 96 % of control | T/C (endpoint: median tumor weight (est.), dose: 56.3 mg/kg/injection, schedule: Q07DX002 (ip), vehicle: distilled water + Tween-80, higher = larger tumour): 101 % of control

[O-][n+]1c(CN2CCCCC2)nc2cccc3c2c1-c1ccccc1-3
T/C (endpoint: median tumor weight (est.), dose: 12.5 mg/kg/injection, schedule: Q07DX002 (ip), vehicle: saline with Tween-80, higher = larger tumour): 66 % of control | T/C (endpoint: median tumor weight (est.), dose: 50.0 mg/kg/injection, schedule: Q07DX002 (ip), vehicle: saline with Tween-80, higher = larger tumour): 47 % of control | T/C (endpoint: median tumor weight (est.), dose: 200.0 mg/kg/injection, schedule: Q07DX002 (ip), vehicle: saline with Tween-80, higher = larger tumour): 57 % of control | T/C (endpoint: median tumor weight (est.), dose: 400.0 mg/kg/injection, schedule: Q07DX002 (ip), vehicle: saline with Tween-80, higher = larger tumour): 72 % of control and 81 % of control

C=C1CCOC2(C(O)C(C)(O)CO)NC(=O)C1(O)NC2=O (centres undefined)
T/C (endpoint: median tumor weight (est.), dose: 225.0 mg/kg/injection, schedule: Q07DX002 (ip), vehicle: saline, higher = larger tumour): 104 % of control | T/C (endpoint: median tumor weight (est.), dose: 450.0 mg/kg/injection, schedule: Q07DX002 (ip), vehicle: saline, higher = larger tumour): 74 % of control | T/C (endpoint: median tumor weight (est.), dose: 900.0 mg/kg/injection, schedule: Q07DX002 (ip), vehicle: saline, higher = larger tumour): 81 % of control | T/C (endpoint: median tumor weight (est.), dose: 1800.0 mg/kg/injection, schedule: Q07DX002 (ip), vehicle: saline, higher = larger tumour): 46 % of control

NC(=O)Nc1cc(NC(N)=O)cc(N(CCCl)CCCl)c1
T/C (endpoint: median tumor weight (est.), dose: 10.0 mg/kg/injection, schedule: Q07DX002 (ip), vehicle: Klucel (hydroxypropylcellulose) (HPC), higher = larger tumour): 89 % of control | T/C (endpoint: median tumor weight (est.), dose: 20.0 mg/kg/injection, schedule: Q07DX002 (ip), vehicle: Klucel (hydroxypropylcellulose) (HPC), higher = larger tumour): 68 % of control | T/C (endpoint: median tumor weight (est.), dose: 40.0 mg/kg/injection, schedule: Q07DX002 (ip), vehicle: Klucel (hydroxypropylcellulose) (HPC), higher = larger tumour): 96 % of control

CN(N=O)C(N)=O
T/C (endpoint: median tumor weight (est.), dose: 3.12 mg/kg/injection, schedule: Q07DX002 (ip), vehicle: saline, higher = larger tumour): 95 % of control | T/C (endpoint: median tumor weight (est.), dose: 6.0 mg/kg/injection, schedule: Q07DX002 (ip), vehicle: saline, higher = larger tumour): 93 % of control | T/C (endpoint: median tumor weight (est.), dose: 6.25 mg/kg/injection, schedule: Q07DX002 (ip), vehicle: saline, higher = larger tumour): 99 % of control | T/C (endpoint: median tumor weight (est.), dose: 6.25 mg/kg/injection, schedule: Q07DX002 (ip), vehicle: suspension in saline, higher = larger tumour): 108 % of control | T/C (endpoint: median tumor weight (est.), dose: 12.0 mg/kg/injection, schedule: Q07DX002 (ip), vehicle: saline, higher = larger tumour): 112 % of control | T/C (endpoint: median tumor weight (est.), dose: 12.5 mg/kg/injection, schedule: Q07DX002 (ip), vehicle: saline, higher = larger tumour): 78 % of control | T/C (endpoint: median tumor weight (est.), dose: 12.5 mg/kg/injection, schedule: Q07DX002 (ip), vehicle: suspension in saline, higher = larger tumour): 76 % of control | T/C (endpoint: median tumor weight (est.), dose: 25.0 mg/kg/injection, schedule: Q07DX002 (ip), vehicle: saline, higher = larger tumour): 43 % of control and 62 % of control | T/C (endpoint: median tumor weight (est.), dose: 25.0 mg/kg/injection, schedule: Q07DX002 (ip), vehicle: suspension in saline, higher = larger tumour): 55 % of control | T/C (endpoint: median tumor weight (est.), dose: 50.0 mg/kg/injection, schedule: Q07DX002 (ip), vehicle: saline, higher = larger tumour): 37 % of control | T/C (endpoint: median tumor weight (est.), dose: 50.0 mg/kg/injection, schedule: Q07DX002 (ip), vehicle: suspension in saline, higher = larger tumour): 82 % of control | T/C (endpoint: median tumor weight (est.), dose: 100.0 mg/kg/injection, schedule: Q07DX002 (ip), vehicle: suspension in saline, higher = larger tumour): 84 % of control

NC(=O)c1cn(C2OC(CO)C(O)C2O)c2ncnc(N)c12 (centres undefined)
T/C (endpoint: median tumor weight (est.), dose: 0.5 mg/kg/injection, schedule: Q07DX002 (ip), vehicle: suspension in saline, higher = larger tumour): 55 % of control | T/C (endpoint: median tumor weight (est.), dose: 1.0 mg/kg/injection, schedule: Q07DX002 (ip), vehicle: suspension in saline, higher = larger tumour): 84 % of control | T/C (endpoint: median tumor weight (est.), dose: 2.0 mg/kg/injection, schedule: Q07DX002 (ip), vehicle: saline with Tween-80, higher = larger tumour): 73 % of control | T/C (endpoint: median tumor weight (est.), dose: 2.0 mg/kg/injection, schedule: Q07DX002 (ip), vehicle: suspension in saline, higher = larger tumour): 56 % of control and 62 % of control | T/C (endpoint: median tumor weight (est.), dose: 4.0 mg/kg/injection, schedule: Q07DX002 (ip), vehicle: saline with Tween-80, higher = larger tumour): 79 % of control | T/C (endpoint: median tumor weight (est.), dose: 4.0 mg/kg/injection, schedule: Q07DX002 (ip), vehicle: suspension in saline, higher = larger tumour): 48 % of control and 73 % of control | T/C (endpoint: median tumor weight (est.), dose: 8.0 mg/kg/injection, schedule: Q07DX002 (ip), vehicle: suspension in saline, higher = larger tumour): 38 % of control

Reference: PubChem BioAssay AID212 (DTP/NCI, 2004)
